Where two headings read alike, the source gives them in different places.
Experiments:
[1] = tested on: Food-Deprived Rats; assay: Rodent Feeding: Food Intake in Food-Deprived Rats (MC-4); assay type: in vivo, rat; conditions: Rattus norvegicus
From the text: Rodent Feeding: Food Intake in Food-Deprived Rats (MC-4)
Male Long-Evans rats (180–200 grams) were housed individually and maintained on a once-a-day feeding schedule (i.e.10 a.m. until 4 p.m.) for five days following quarantine to allow the animals to acclimate to feeding on powdered chow (#5002 PMI Certified Rodent Meal) during the allotted time. The chow was made available in an open jar, anchored in the cage by a wire, with a metal follower covering the food to minimize spillage. Water was available ad-libitum.
Animals were fasted for 18 hours prior to testing. At the end of the fasting period, animals were administered either a test compound or vehicle. Vehicle and test compound were administered either orally (5 mL/kg) 60 minutes prior to the experiment, subcutaneously (1 mL/kg) 30 minutes prior to the experiment, or intraperitoneally (1 mL/kg) 30 minutes prior to the experiment. Test compounds were administered orally as a suspension in aqueous 0.5% methylcellulose-0.4% Tween 80, or intraperitoneally as a solution or suspension in PEG 200; compound concentrations typically ranged from 1 mg/kg to 100 mg/kg, preferably from 10–30 mg/kg. Food intake was measured at 2, 4, and 6 hours after administration by weighing the special jar containing the food before the experiment and at the specified times. Upon completion of the experiment, all animals were given a one-week washout period before re-testing.
Following the procedure described above, select compounds of the present invention were tested to measure the effect on food intake in fasted rats, as listed in Table 5 and 6.

[2] = tested on: Male Long-Evans rats, facial nerve compression; assay: In vivo Facial Nerve Compression Model; design: species or system rat; conditions: for Percent Recovery of whisker movement D9 / Percent Recovery of whisker movement D10 / Percent Recovery of whisker movement D11 / Percent Recovery of whisker movement D12 / Percent Recovery of whisker movement D13 / Percent Recovery of whisker movement D14: test compounds p.o. 20 mg/kg bid, αMSH s.c. 70 ug/each 48 hr; for Percent Recovery of whisker movement D9: % of sham-operated side; for recovery time to restore whisker muscle movement: lesioned rats vs vehicle controls (p<0.05), p.o. 20 mg/kg bid
From the text: The ability of test compound to provide neuro-protective or neuro-regenerative effects was investigated in a facial nerve compression model. Facial nerve motor axons arise exclusively from neurons within the pons in a well-defined nucleus. Facial nerve compression results in retrograde reactions proximal to the lesion site and Wallerian degeneration at its distal part, which causes diminished whisker movement on the lesioned side.
Male Long-Evans rats (150–180 g) were anesthetized with 3–5% isoflorane for induction and 2% for maintenance during the surgical procedures. The right facial nerve was exposed and compressed with forceps for 30 sec at its exit from the stylomastoid foramen. The left facial nerve was sham-operated and served as an internal control. […] The following morphological abnormalities associated with the functional deficit were observed:
After recovery from anesthesia, the rats were randomly divided into groups for dosing with vehicle, αMSH or test compound, with 6 animals per group. αMSH (s.c., 70 ug/each 48 hr) was used as a positive control. Test compounds were dosed p.o. at 20 mg/kg bid for 14 days. Restoration of whisker movement was monitored daily after the operation using two criteria:
(1) frequency of whisker movement on the lesioned side relative to the opposite side (sham-operated) which served as the baseline control
(2) semi-quantitative measurements (0 to 4+) on strength of the whisker muscles, characterized based on observation of the percentage of moved whiskers, muscle tone of whisker muscles, and the position of the nose. For all observations, the experimental design was blind to the behavioral observer.
The recovery rate of the whisker movement was expressed as percentage of its own internal control (sham-operated), as listed in Table 8.

[3] = tested on: Cortical Cells; assay: Neurite Cell Outgrowth Assay, cortical cells; assay type: cell-based; conditions: Rattus norvegicus; 50 nM; percent change over the vehicle response; NA = no change/not active
Procedure, shortened: (§1)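 Rat E18 hippocampal or cortical neurons plated at 30,000 cells/well, treated 24 h after plating with compound at 50 nM, refreshed on day 3. At one week, fixed and MAP-2 immunostained with FITC secondary, read by fluorescence; outgrowth given as percent change versus vehicle.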

[4] = tested on: human sebocytes; assay: cells; assay type: cell-based; conditions: read-out: % Inh Unknown lipid synthesis
[5] = tested on: Hippocampal Cells; assay: Neurite Cell Outgrowth Assay, hippocampal cells; assay type: cell-based; conditions: Rattus norvegicus; 50 nM; percent change over the vehicle response; NA = no change/not active
Procedure, shortened: as §1

[6] = po, 2 h, po, read-out: Change in Food Intake 0–2 hrs (%)
[7] = po, 6 h, po, read-out: Change in Food Intake 2–6 hrs (%)
[8] = ip, 2 h, ip, read-out: Change in Food Intake 0–2 hrs (%)
[9] = ip, 6 h, ip, read-out: Change in Food Intake 2–6 hrs (%)

| SMILES | change in vivo at 30 mg/kg [1, 6] | change in vivo at 30 mg/kg [1, 7] | Percent Recovery of whisker movement D9 [2] | Percent Recovery of whisker movement D10 [2] | Percent Recovery of whisker movement D11 [2] | Percent Recovery of whisker movement D12 [2] | Percent Recovery of whisker movement D13 [2] | Percent Recovery of whisker movement D14 [2] | recovery time to restore whisker muscle movement [2] | activation at 0.05 µM [3] | further results |
| --- | --- | --- | --- | --- | --- | --- | --- | --- | --- | --- | --- |
| c1ccc(CNc2nc(-c3ccccc3)[n+](-c3ccccc3)s2)cc1 [Compound 84] | -7% | 32% | 0% | 4.8% | 35.1% | 90.0% | 98.3% | 100% | accelerated the recovery time | 17% |  |
| COc1ccccc1-[n+]1sc(Nc2ccc(C)cc2)nc1-c1ccccc1.[Br-] [Compound 31, 2-(2-methoxyphenyl)-3-phenyl-5-p-tolylamino-[1,2,4]thiadiazol-2-ium] | -23.6% | 31.5% | 0% | 3.5% | 67.8% | 98.5% | 100% | 100% | accelerated the recovery time | 16% | change in vivo at 1 mg/kg [1, 8]: -20.6%; change in vivo at 3 mg/kg [1, 8]: -37.8%; change in vivo at 1 mg/kg [1, 9]: -71.2%; change in vivo at 3 mg/kg [1, 9]: -50%; change in vivo at 1 mg/kg [1, 6]: 1.2%; change in vivo at 3 mg/kg [1, 6]: -9%; change in vivo at 10 mg/kg [1, 6]: -10.1%; change in vivo at 1 mg/kg [1, 7]: 19.5%; change in vivo at 3 mg/kg [1, 7]: 52.1%; change in vivo at 10 mg/kg [1, 7]: 39.7% |
| COc1ccccc1-c1nc(Nc2ccccc2)s[n+]1-c1ccccc1OC.[Br-] [Compound 74, 2-(2-methoxyphenyl)-3-(2-methoxyphenyl)-5-phenylamino-[1,2.4]thiadiazol-2-ium] |  |  |  |  |  |  |  |  |  |  | inhibition at 0.4 µM [4]: 75%; inhibition at 0.6 µM [4]: 80% |
| COc1ccc(N(C)c2nc(-c3ccccc3)[n+](-c3ccc(C)cc3)s2)cc1 [Compound 50] |  |  |  |  |  |  |  |  |  |  | activation at 0.05 µM [5]: 46% |

From patent US7049331B2, “1,2,4-thiadiazole derivatives as melanocortin receptor modulators” (Ortho-McNeil Pharmaceutical, Inc., priority 2001, dated 2006)
